The results in this text go back to patent US10464911B2, “1,3,4-oxadiazole sulfamide derivative compounds as histone deacetylase 6 inhibitor, and the pharmaceutical composition comprising the same” (Chong Kun Dang Pharmaceutical Corp., priority 2015, dated 2019).

The assay concerns the target human recombinant HDAC6 (Homo sapiens (Human), UniProt Q9UBN7). In words: HDAC6 enzyme activity inhibition assay (HDAC Fluorimetric Drug Discovery Kit). It is filed as biochemical. The note with it: for HDAC6 selectivity (fold): HDAC6 versus HDAC1; for IC50: human recombinant HDAC6, same protocol as HDAC1 test. The protocol:
In order to examine the HDAC6 selectivity of the compounds of formula I of the present invention by HDAC1 and HDAC6 enzymatic activity inhibition assays, an experiment was performed using a conventional substance as a control.
HDAC enzyme activity was measured using a HDAC Fluorimetric Drug Discovery Kit (BML-AK511, 516, Enzo Life Science). For the HDAC1 enzyme activity test, human recombinant HDAC1 (BML-SE456) was used as an enzyme source, and Fluor de Lys®-“SIRT1 (BNL-KI177) was used as a substrate. A 5-fold dilution of the compound was seeded into a 96-well plate, and then 0.3 μg of the enzyme and 10 μM of the substrate were added to each well of the plate and allowed to react at 30 for 60 minutes. Then, Fluor de Lys®-Developer II (BML-KI176) was added thereto and allowed to react for 30 minutes, after which the fluorescence value (Ex 360, Em 460) was measured using a multi-plate reader (Flexstation 3, Molecular Device). The HDAC6 enzyme was tested using human recombinant HDAC6 (382180) (Calbiochem) according to the same protocol as the HDAC1 enzyme activity test method. Based on the resulting values, each IC50 value was calculated using GraphPad Prism4.0 program.

One may read the IC50 as the concentration needed to halve the response being measured.

Sequence of human recombinant HDAC6 (Q9UBN7 whole entry): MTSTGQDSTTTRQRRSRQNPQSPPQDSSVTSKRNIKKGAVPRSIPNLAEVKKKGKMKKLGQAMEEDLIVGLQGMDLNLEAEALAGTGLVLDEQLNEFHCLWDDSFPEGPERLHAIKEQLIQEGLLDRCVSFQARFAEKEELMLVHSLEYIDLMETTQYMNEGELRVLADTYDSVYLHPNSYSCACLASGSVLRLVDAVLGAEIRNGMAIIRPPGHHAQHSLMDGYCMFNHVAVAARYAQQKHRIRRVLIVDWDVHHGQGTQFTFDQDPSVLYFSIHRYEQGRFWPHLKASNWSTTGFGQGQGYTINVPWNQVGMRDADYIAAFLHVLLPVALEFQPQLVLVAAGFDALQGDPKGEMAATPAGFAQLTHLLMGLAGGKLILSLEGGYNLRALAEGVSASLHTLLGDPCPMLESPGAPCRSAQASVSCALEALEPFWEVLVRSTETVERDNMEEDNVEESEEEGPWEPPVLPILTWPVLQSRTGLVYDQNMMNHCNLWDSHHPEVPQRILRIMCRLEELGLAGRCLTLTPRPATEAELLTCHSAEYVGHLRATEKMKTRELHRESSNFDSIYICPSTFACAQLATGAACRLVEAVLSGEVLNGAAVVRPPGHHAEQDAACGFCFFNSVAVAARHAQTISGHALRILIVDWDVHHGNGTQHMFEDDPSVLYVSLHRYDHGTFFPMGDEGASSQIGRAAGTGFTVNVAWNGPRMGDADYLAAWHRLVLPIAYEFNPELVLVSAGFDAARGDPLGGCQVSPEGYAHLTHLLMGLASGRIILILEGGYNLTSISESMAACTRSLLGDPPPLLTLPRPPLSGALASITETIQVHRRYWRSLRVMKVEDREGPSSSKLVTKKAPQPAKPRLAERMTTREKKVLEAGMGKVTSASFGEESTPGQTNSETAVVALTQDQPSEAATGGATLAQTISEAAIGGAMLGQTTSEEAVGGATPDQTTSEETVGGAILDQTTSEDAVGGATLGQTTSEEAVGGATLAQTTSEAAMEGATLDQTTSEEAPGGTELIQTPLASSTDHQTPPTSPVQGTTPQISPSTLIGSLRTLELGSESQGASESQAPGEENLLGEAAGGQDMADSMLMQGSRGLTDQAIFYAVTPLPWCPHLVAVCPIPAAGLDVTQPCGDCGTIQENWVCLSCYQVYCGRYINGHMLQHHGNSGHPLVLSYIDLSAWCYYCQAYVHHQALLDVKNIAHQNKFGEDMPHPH

In the case of `CC(C)N1CCN(S(=O)(=O)N(Cc2ccc(-c3nnc(C(F)F)o3)cn2)c2ccc(F)c(Cl)c2)CC1` [Compound 11670, N-(3-chloro-4-fluorophenyl)-N-((5-(5-(difluoromethyl)-1,3,4-oxadiazol-2-yl)pyridin-2-yl)methyl)-4-isopropylpiperazine-1-sulfonamide], the “HDAC6 selectivity (fold)” value is 4761 fold and the IC50 is 21 nM.

`O=S(=O)(N1CCN(C2CCC2)CC1)N(Cc1ccc(-c2nnc(C(F)F)o2)cn1)c1ccc(F)c(Cl)c1` [Compound 11671, N-(3-chloro-4-fluorophenyl)-4-cyclobutyl-N-((5-(5-(difluoromethyl)-1,3,4-oxadiazol-2-yl)pyridin-2-yl)methyl)piperazine-1-sulfonamide]: the “HDAC6 selectivity (fold)” value turned out to be 3703 fold and the IC50 came out at 27 nM.

Consider `O=S(=O)(N1CCN(C2COC2)CC1)N(Cc1ccc(-c2nnc(C(F)F)o2)cn1)c1ccc(F)c(Cl)c1` [Compound 11672, N-(3-chloro-4-fluorophenyl)-N-((5-(5-(difluoromethyl)-1,3,4-oxadiazol-2-yl)pyridin-2-yl)methyl)-4-(oxetan-3-yl)piperazine-1-sulfonamide], for which the “HDAC6 selectivity (fold)” value is on record as 7142 fold and the IC50 is 14 nM.

As for `CC(C)N1CCN(S(=O)(=O)N(Cc2ccc(-c3nnc(C(F)F)o3)cc2)c2ccccc2)CC1` [Compound 11673, N-(4-(5-(difluoromethyl)-1,3,4-oxadiazol-2-yl)benzyl)-4-isopropyl-N-phenylpiperazine-1-sulfonamide], the “HDAC6 selectivity (fold)” value was 1351 fold and the IC50 amounted to 74 nM.

Regarding `O=S(=O)(N1CCN(C2CCC2)CC1)N(Cc1ccc(-c2nnc(C(F)F)o2)cc1)c1ccccc1` [Compound 11674, 4-cyclobutyl-N-(4-(5-(difluoromethyl)-1,3,4-oxadiazol-2-yl)benzyl)-N-phenylpiperazine-1-sulfonamide], the “HDAC6 selectivity (fold)” value is on record as 751 fold and the IC50 is 133 nM.

As to `CN(CCN1CCN(C2COC2)CC1)S(=O)(=O)N(Cc1ccc(-c2nnc(C(F)F)o2)cc1)c1ccccc1` [Compound 11704, 2-((4-(((N-methyl-N-(2-(4-(oxetan-3-yl)piperazin-1-yl)ethyl)sulfamoyl)(phenyl)amino)methyl))phenyl)-5-(difluoromethyl)-1,3,4-oxadiazole], the “HDAC6 selectivity (fold)” value came to 429 fold and the IC50 was 233 nM.

For the compound `CC(=O)N1CCN(CCN(C)S(=O)(=O)N(Cc2ccc(-c3nnc(C(F)F)o3)cc2)c2ccccc2)CC1` [Compound 11713, 2-((4-(((N-methyl-N-(2-(4-acetylpiperazin-1-yl)ethyl)sulfamoyl)(phenyl)amino)methyl))phenyl)-5-(difluoromethyl)-1,3,4-oxadiazole], the “HDAC6 selectivity (fold)” value amounted to 142 fold and the IC50 stood at 705 nM.

For the compound `CN(CCN1CCN(S(C)(=O)=O)CC1)S(=O)(=O)N(Cc1ccc(-c2nnc(C(F)F)o2)cc1)c1ccccc1` [Compound 11714, 2-((4-(((N-methyl-N-(2-(4-(methylsulfonyl)piperazin-1-yl)ethyl)sulfamoyl)(phenyl)amino)methyl))phenyl)-5-(difluoromethyl)-1,3,4-oxadiazole], the “HDAC6 selectivity (fold)” value came out at 616 fold and the IC50 worked out at 162 nM.

Regarding `Cl.O=S(=O)(N1CCC2(CC1)CNC2)N(Cc1ccc(-c2nnc(C(F)F)o2)cc1)c1ccccc1` [Compound 11787, N-(4-(5-(difluoromethyl)-1,3,4-oxadiazol-2-yl)benzyl)-N-phenyl-2,7-diazaspiro[3.5]nonane-7-sulfonamide Hydrochloride], the “HDAC6 selectivity (fold)” value stood at 1041 fold and the half-inhibitory concentration (IC50) is 96 nM.

In the case of `O=S(=O)(N1CCC2(CC1)CN(C1COC1)C2)N(Cc1ccc(-c2nnc(C(F)F)o2)cc1)c1ccccc1` [Compound 11788, N-(4-(5-(difluoromethyl)-1,3,4-oxadiazol-2-yl)benzyl)-2-(oxetan-3-yl)-N-phenyl-2,7-diazaspiro[3.5]nonane-7-sulfonamide], the “HDAC6 selectivity (fold)” value turned out to be 561 fold and the IC50 was found to be 178 nM.

As to `O=S(=O)(N1CCC2(CC1)CN(C1CCC1)C2)N(Cc1ccc(-c2nnc(C(F)F)o2)cc1)c1ccccc1` [Compound 11789, 2-cyclobutyl-N-(4-(5-(difluoromethyl)-1,3,4-oxadiazol-2-yl)benzyl)-N-phenyl-2,7-diazaspiro[3.5]nonane-7-sulfonamide], the “HDAC6 selectivity (fold)” value is listed as 819 fold and the half-inhibitory concentration (IC50) was 122 nM.

For the compound `Cc1cccc(N(Cc2ccc(-c3nnc(C(F)F)o3)cn2)S(=O)(=O)N2CCN(C)[C@H](C)C2)c1` [Compound 11823, (R)—N-((5-(5-(difluoromethyl)-1,3,4-oxadiazol-2-yl)pyridin-2-yl)methyl)-3,4-dimethyl-N-(m-tolyl)piperazine-1-sulfonamide], the “HDAC6 selectivity (fold)” value is 2083 fold and the IC50 was found to be 48 nM.

`Cc1cccc(N(Cc2ccc(-c3nnc(C(F)F)o3)cn2)S(=O)(=O)N2CCN(C3COC3)[C@H](C)C2)c1` [Compound 11824, (R)—N-((5-(5-(difluoromethyl)-1,3,4-oxadiazol-2-yl)pyridin-2-yl)methyl)-3-methyl-4-(oxetan-3-yl)-N-(m-tolyl)piperazine-1-sulfonamide]: the “HDAC6 selectivity (fold)” value amounted to 2000 fold and the IC50 turned out to be 50 nM.

As for `C[C@@H]1CN(S(=O)(=O)N(Cc2ccc(-c3nnc(C(F)F)o3)cn2)c2cccc(Cl)c2)CCN1C` [Compound 11825, (R)—N-(3-chlorophenyl)-N-((5-(5-(difluoromethyl)-1,3,4-oxadiazol-2-yl)pyridin-2-yl)methyl)-3,4-dimethylpiperazine-1-sulfonamide], the “HDAC6 selectivity (fold)” value is given as 2777 fold and the IC50 was 36 nM.

For the compound `C[C@@H]1CN(S(=O)(=O)N(Cc2ccc(-c3nnc(C(F)F)o3)cn2)c2cccc(Cl)c2)CCN1C1COC1` [Compound 11826, (R)—N-(3-chlorophenyl)-N-((5-(5-(difluoromethyl)-1,3,4-oxadiazol-2-yl)pyridin-2-yl)methyl)-3-methyl-4-(oxetan-3-yl)piperazine-1-sulfonamide], the “HDAC6 selectivity (fold)” value was 2439 fold and the IC50 was 41 nM.

As to `Cc1cccc(N(Cc2ccc(-c3nnc(C(F)F)o3)cn2)S(=O)(=O)N2CCN(C)[C@@H](C)C2)c1` [Compound 11827, (S)—N-((5-(5-(difluoromethyl)-1,3,4-oxadiazol-2-yl)pyridin-2-yl)methyl)-3,4-dimethyl-N-(m-tolyl)piperazine-1-sulfonamide], the “HDAC6 selectivity (fold)” value worked out at 1923 fold and the IC50 was 52 nM.

`Cc1cccc(N(Cc2ccc(-c3nnc(C(F)F)o3)cn2)S(=O)(=O)N2CCN(C3COC3)[C@@H](C)C2)c1` [Compound 11828, (S)—N-((5-(5-(difluoromethyl)-1,3,4-oxadiazol-2-yl)pyridin-2-yl)methyl)-3-methyl-4-(oxetan-3-yl)-N-(m-tolyl)piperazine-1-sulfonamide]: the “HDAC6 selectivity (fold)” value was determined as 2380 fold and the IC50 was 42 nM.

Take `C[C@H]1CN(S(=O)(=O)N(Cc2ccc(-c3nnc(C(F)F)o3)cn2)c2cccc(Cl)c2)CCN1C` [Compound 11829, (S)—N-(3-chlorophenyl)-N-((5-(5-(difluoromethyl)-1,3,4-oxadiazol-2-yl)pyridin-2-yl)methyl)-3,4-dimethylpiperazine-1-sulfonamide]: the “HDAC6 selectivity (fold)” value was 3448 fold and the half-inhibitory concentration (IC50) worked out at 29 nM.

On to `C[C@H]1CN(S(=O)(=O)N(Cc2ccc(-c3nnc(C(F)F)o3)cn2)c2cccc(Cl)c2)CCN1C1COC1` [Compound 11830, (S)—N-(3-chlorophenyl)-N-((5-(5-(difluoromethyl)-1,3,4-oxadiazol-2-yl)pyridin-2-yl)methyl)-3-methyl-4-(oxetan-3-yl)piperazine-1-sulfonamide], for which the “HDAC6 selectivity (fold)” value came out at 5882 fold and the IC50 amounted to 17 nM.

As for `O=S(=O)(N1CCN(C2CCC2)CC1)N(Cc1ccc(-c2nnc(C(F)F)o2)cn1)c1cccc(Cl)c1` [Compound 11831, N-(3-chlorophenyl)-4-cyclobutyl-N-((5-(5-(difluoromethyl)-1,3,4-oxadiazol-2-yl)pyridin-2-yl)methyl)piperazine-1-sulfonamide], the “HDAC6 selectivity (fold)” value came to 2777 fold and the IC50 turned out to be 36 nM.

With `O=S(=O)(N1CCN(C2COC2)CC1)N(Cc1ccc(-c2nnc(C(F)F)o2)cn1)c1cccc(Cl)c1` [Compound 11832, N-(3-chlorophenyl)-N-((5-(5-(difluoromethyl)-1,3,4-oxadiazol-2-yl)pyridin-2-yl)methyl)-4-(oxetan-3-yl)piperazine-1-sulfonamide], the “HDAC6 selectivity (fold)” value was 4761 fold and the 50% inhibitory concentration (IC50) is 21 nM.

Consider `Cc1cccc(N(Cc2ccc(-c3nnc(C(F)F)o3)cn2)S(=O)(=O)N2CCN(C3COC3)CC2)c1` [Compound 11833, N-((5-(5-(difluoromethyl)-1,3,4-oxadiazol-2-yl)pyridin-2-yl)methyl)-4-(oxetan-3-yl)-N-(m-tolyl)piperazine-1-sulfonamide], for which the “HDAC6 selectivity (fold)” value was 2040 fold and the concentration for half-maximal inhibition (IC50) is 49 nM.
